According to patent US20250222068A1, “COMPOSITION FOR PREVENTING OR TREATING LUPUS COMPRISING RECOMBINANT STABILIZED GALECTIN-9 PROTEIN” (GBIOLOGICS INC., priority 2022, published 2025):

Assay: Body weight assessment in an in vivo model of systemic lupus erythematosus
Conditions: mycophenolate 60 mg/kg PO once daily, 9 weeks, MRL/FAS^lpr mice, FIG. 1

## COc1c(C)c2c(c(O)c1C/C=C(\C)CCC(=O)O)C(=O)OC2 [Mycophenolate, mycophenolate]
  changes in body weight: no statistically significant changes in body weight
